Data reported in article PMC10897476, “Pyridylpiperazine efflux pump inhibitor boosts in vivo antibiotic efficacy against K. pneumoniae” (EMBO Molecular Medicine, 2023).
Where “and” joins values, the source holds several entries; their conditions need not be identical. Equal values may be shown once. Read-outs that look alike come from different tables or passages of the source.

Assays:
K. pneumoniae AcrB = K. pneumoniae AcrB (Klebsiella pneumoniae, UniProt A0A332Z023); assay: Berberine accumulation assay, K. pneumoniae WT; format: cell-based; conditions: read-out: apparent Ki, concentration-dependent stimulation of berberine uptake, 200 µM berberine
Experimental: (§1) The accumulation of the berberine AcrB substrate in K. pneumoniae WT and AcrB-V448E cells in the presence of different BDM91288 (5) concentrations was determined as described (Plé et al, [2022]) with minor modifications. Briefly, an overnight LB pre-culture of each strain (0.6 mL) was used to inoculate a 30-mL LB culture and incubated for around 2 h (37 °C, 150 rpm) to reach OD600 around 1. Cells were harvested by centrifugation (4000 × g, 10 min at 4 °C), washed three times with 10 mL of ice-cold buffer (50 mM potassium-phosphate pH 7.5 and 1 mM MgSO4) and resuspended into the same buffer containing also 0.2% glucose to an OD600 of 2. The bacterial suspension was then allowed to reach room temperature, after which 200 µL was dispensed to wells of an assay ready 96-black-well plate (Greiner Bio-One) containing 2 µL of 100× concentrated serial dilution of BDM91288 (5). To initiate the uptake experiment, 2 µL of berberine 20 mM (final concentration of 200 µM) was added to each well and transferred to a microplate fluorescence plate reader (Spark, Tecan), where the kinetics of berberine uptake was monitored for 20 min at 30 °C (excitation 365 nm/emission 540 nm). Experiments were performed 4 independent times, and berberine uptake was calculated for all conditions as the rate of fluorescence increase over the first 10 min and expressed as RFU/min (mean ± SD). […]

[1] = test system: K. pneumoniae AcrB variant V448E; assay: Berberine accumulation assay, K. pneumoniae AcrB V448E; format: cell-based, Klebsiella pneumoniae; conditions: K. pneumoniae producing AcrB variant V448E
Experimental: as §1

[2] = Plasma protein binding by equilibrium dialysis; format: in vitro ADME; conditions: pH 7.4, mouse plasma, read-out: plasma protein binding, Funbound
Experimental: In vitro plasma protein binding of BDM91288 (5) was measured in mouse plasma using equilibrium dialysis. The RED inserts were placed in a 48-well Teflon Plate (Pierce). Samples were prepared by mixing test compound with plasma at the appropriate concentration to reach a final drug concentration of 10 μM. Triplicate aliquots of plasma containing BDM91288 (5) at a concentration of 10 μM were pipetted to plasma side (red) of the insert and PBS pH 7.4 was placed into the receiver side (white) of the insert. The plate was covered with sealing tape and incubated in a 37 °C orbital shaker water bath for 4 h. Following incubation, samples were prepared in a mixed matrix configuration. Aliquots of samples were pipetted into 96-well plates and precipitation buffer was added to precipitate the proteins. Samples were mixed by vortexing, then centrifuged for 10 min at 12,000 rpm at 4 °C. The supernatant was assayed directly by LC-MS/MS. The following equation was used to calculate the percentage of bound drug fraction (% PPB) using this equilibrium dialysis method: % unbound = ([Buffer chamber]/[Plasma chamber) × 100.

in vitro = format: cell-based; conditions: mouse, BALB/3T3 cells, read-out: in vitro cytotoxicity CC50
Experimental: BALB/3T3 cells (CCL-163 from ATCC) were not authenticated. The cell lines were tested negative for mycoplasma contamination (kit mycoalert LONZA). The cytotoxicity of compound BDM91288 (5) was determined on BALB/3T3 cells using live imaging following both Hoechst 33342 and propidium iodide staining. Propidium iodide is a not membrane-permeable DNA stain, allowing to differentiate necroptic, apoptotic and healthy cells based on loss of membrane integrity. […] Final medium volume was 70 µL. 24 h after compounds addition, live imaging was performed using the automated confocal microscope In Cell Analyzer 6000 (GE Healthcare). The cytotoxicity was defined as the percent of cells labelled by propidium iodide in the total cell population (Hoechst labelled cells) using Columbus software (Perkin Elmer). Compounds were tested in triplicate. Carfilzomib (499, 249, […], 61, and 30.6 nM) was used as a positive control in this assay.

[3] = Pharmacokinetics in mice, single oral dose (plasma, whole lung); conditions: for concentration at 0.5 h / concentration at 1 h / concentration at 1.5 h / concentration at 2 h / concentration at 4 h / concentration at 6 h / concentration at 24 h: mice
Experimental: BDM91288 (5) was dissolved in 10% kleptose hydroxypropyl-β-cyclodextrin in distilled water and administered per os at 30 mg/kg to female CD-1 mice (~25–30 g). The concentration of BDM91288 (5) in plasma and lungs was measured at different time points after administration of a single dose of compounds. Three mice per time point were anesthetized with isoflurane and blood taken from the retro-orbital sinus using sampling heparinated tubes (4 °C). The blood samples were centrifuged (3500 rpm, 20 min, 4 °C) for plasma separation and stored at −80 °C before BDM91288 measurement. After rodent sacrifice by cervical dislocation, lung was washed in sodium chloride solution (0.9%), frozen in liquid nitrogen and stored at −80 °C.
Plasma and BAL fluid samples were thawed on ice. Aliquots were precipitated with ice-cold MeCN/MeOH 50:50 (1 to 10 ratio) containing propranolol (100 nM) as internal standard. The samples were vigorously mixed with a vortex and centrifuged for 10 min at 12,000 rpm, 4 °C, and the supernatants were transferred into Matrix tubes for LC-MS/MS analysis. Lungs were homogenized in ultrapure water, in a 1 to 4 ratio (W/V) (using a Tissue Lyzer II from Qiagen); then compounds were extracted with a MeOH/MeCN 50:50 mixture in a 1 to 1 ratio (V/V). After centrifugation (12,000 rpm, 10 min, 4 °C) of the homogenate samples, supernatants were diluted (1 to 10) with a MeOH/MeCN 50:50 mixture containing propranolol (100 nM) as internal standard and transferred into Matrix tubes for LC-MS/MS analysis. Spiked standard solutions were prepared the same way in control matrix.
Samples were analysed using a UPLC system Acquity I Class (Waters), combined with a triple quadrupole mass spectrometer Xevo TQD (Waters). The column, placed at 40 °C, was an Acquity BEH C18 50 × 2.1 mm, 1.7 μm column (Waters) and the following mobile phases were used: H2O 0.1% HCOOH as solvent A and MeCN 0.1% HCOOH as solvent B at a flow rate of 0.6 mL/min. The gradient was initiated at 2% B, maintained for 10 s then increased linearly to 98% B in 1′50 and maintained at 98% B for 30 s before returning to initial conditions. […] Data analysis and processing were performed using MassLynx software (Waters).

[4] = female, CD-1, mouse, in vivo, po, 30 mg/kg
[5] = female, CD-1, mouse, in vivo, po, 30 mg/kg, Caverage plasma, single 30 mg/kg p.o.
[6] = female, CD-1, mouse, in vivo, po, 30 mg/kg, Caverage whole lung, single 30 mg/kg p.o.

K. pneumoniae AcrB, sequence (A0A332Z023 entry or part of it): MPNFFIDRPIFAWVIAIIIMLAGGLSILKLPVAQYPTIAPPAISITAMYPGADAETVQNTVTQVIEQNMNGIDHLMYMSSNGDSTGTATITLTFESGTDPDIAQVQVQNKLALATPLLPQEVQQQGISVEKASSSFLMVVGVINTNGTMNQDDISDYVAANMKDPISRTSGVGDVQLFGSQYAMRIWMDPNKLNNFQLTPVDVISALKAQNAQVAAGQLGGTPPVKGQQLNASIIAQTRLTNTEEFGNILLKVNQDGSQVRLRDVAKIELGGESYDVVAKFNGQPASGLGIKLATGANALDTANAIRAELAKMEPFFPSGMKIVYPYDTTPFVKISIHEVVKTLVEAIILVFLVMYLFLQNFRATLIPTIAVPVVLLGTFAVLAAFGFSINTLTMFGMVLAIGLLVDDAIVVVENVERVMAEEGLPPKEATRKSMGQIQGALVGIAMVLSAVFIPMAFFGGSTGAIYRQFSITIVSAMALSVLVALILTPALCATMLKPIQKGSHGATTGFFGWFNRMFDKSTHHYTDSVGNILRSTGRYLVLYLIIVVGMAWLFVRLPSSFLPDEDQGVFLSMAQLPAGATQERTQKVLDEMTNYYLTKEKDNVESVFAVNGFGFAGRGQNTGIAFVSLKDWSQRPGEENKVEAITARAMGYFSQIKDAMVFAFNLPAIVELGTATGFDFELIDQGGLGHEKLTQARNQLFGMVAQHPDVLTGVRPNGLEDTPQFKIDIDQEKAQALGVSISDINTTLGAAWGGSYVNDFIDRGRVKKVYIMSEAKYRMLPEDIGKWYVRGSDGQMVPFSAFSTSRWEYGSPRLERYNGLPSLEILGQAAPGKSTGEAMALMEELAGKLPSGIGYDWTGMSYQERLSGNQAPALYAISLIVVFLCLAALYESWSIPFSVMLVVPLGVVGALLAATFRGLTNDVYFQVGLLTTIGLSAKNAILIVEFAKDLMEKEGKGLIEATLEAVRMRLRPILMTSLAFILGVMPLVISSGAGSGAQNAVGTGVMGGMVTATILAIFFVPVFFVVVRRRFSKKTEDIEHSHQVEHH

SMILES: Clc1cc2cc(N3CCNCC3)ccc2nc1N1CCNCC1 [compound 5]
- Ki (K. pneumoniae AcrB): ~20 µM
- concentration-dependent stimulation of berberine uptake [1]: not observed
- fraction unbound at 4 h, 10 μM [2]: 0.54
- CC50 at 24 h (in vitro): 48 µM
- Tmax [3, 4]: 4 h
- half-life [3, 4]: > 10 h
- AUC(0-t) ([3]; female, CD-1, mouse, in vivo, po, 30 mg/kg, AUC(0-24h) plasma, single 30 mg/kg p.o., female CD-1 mice): 27 µM·h
- AUC(0-t) ([3]; female, CD-1, mouse, in vivo, po, 30 mg/kg, AUC(0-24h) whole lung, single 30 mg/kg p.o., female CD-1 mice): 3880 µM·h
- concentration at 0.5 h [3, 5]: 800 nM
- concentration at 1 h [3, 5]: 1600 nM
- concentration at 1.5 h [3, 5]: 1300 nM
- concentration at 2 h [3, 5]: 1800 nM
- concentration at 4 h [3, 5]: 2000 nM
- concentration at 6 h [3, 5]: 1400 nM
- concentration at 24 h [3, 5]: 500 nM
- concentration at 0.5 h [3, 6]: 35.4 µM and 11700 ng/g
- concentration at 1 h [3, 6]: 93.5 µM and 31000 ng/g
- concentration at 1.5 h [3, 6]: 102 µM and 33800 ng/g
- concentration at 2 h [3, 6]: 160 µM and 53100 ng/g
- concentration at 4 h [3, 6]: 225 µM and 74700 ng/g
- concentration at 6 h [3, 6]: 168 µM and 55900 ng/g
- concentration at 24 h [3, 6]: 159 µM and 52800 ng/g
- Cmax ([3]; female, CD-1, mouse, in vivo, po, 30 mg/kg, Cmax plasma, single 30 mg/kg p.o., female CD-1 mice): 2000 nM
- Cmax ([3]; female, CD-1, mouse, in vivo, po, 30 mg/kg, Cmax whole lung, single 30 mg/kg p.o., female CD-1 mice): 225 µM and 75000 ng/g
- Cmax ([3]; read-out: Cmax whole lung, single 30 mg/kg p.o., female CD-1 mice, listed as BDM91288 (5)): 225000 nM
